This note sets out measurements from PubChem BioAssay AID330 (DTP/NCI, 2004).

Several values for one entry are separate records, joined by “and”; a condition that tells them apart may be missing. Equal values may be shown once. Toxic doses and inconclusive results are not listed.

In this experiment the test system is P388 leukemia ip, CD2F1 mice, survival T/C. As to the kind of experiment: NCI In Vivo Anticancer Drug Screen. Data for tumor model P388 Leukemia (intraperitoneal) in CD2F1 (CDF1) mice. Conditions: endpoint: median survival time, higher = longer survival. An outline of the steps:
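Mice carrying the transplanted tumor received test compound or vehicle. Survival was recorded in each group, and the value is the treated-group measurement divided by that of the vehicle-treated control group.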

[1] abbreviates: dose: 60.0 mg/kg/injection, schedule: Q01DX005 (ip), vehicle: saline with Tween-80.
[2] abbreviates: dose: 120.0 mg/kg/injection, schedule: Q01DX005 (ip), vehicle: saline with Tween-80.
The mark [3] stands for this setting: dose: 240.0 mg/kg/injection, schedule: Q01DX005 (ip), vehicle: saline with Tween-80.
Setting [4] is: dose: 50.0 mg/kg/injection, schedule: Q01DX009 (ip), vehicle: suspension in saline.
Setting [5] is: dose: 100.0 mg/kg/injection, schedule: Q01DX009 (ip), vehicle: suspension in saline.
[6] abbreviates: dose: 200.0 mg/kg/injection, schedule: Q01DX009 (ip), vehicle: suspension in saline.
The mark [7] stands for this setting: dose: 50.0 mg/kg/injection, schedule: Q01DX009 (ip), vehicle: saline with Tween-80.
The mark [8] stands for this setting: dose: 100.0 mg/kg/injection, schedule: Q01DX009 (ip), vehicle: saline with Tween-80.
[9] abbreviates: dose: 200.0 mg/kg/injection, schedule: Q01DX009 (ip), vehicle: saline with Tween-80.
The mark [10] stands for this setting: dose: 50.0 mg/kg/injection, schedule: Q01DX009 (ip), vehicle: Klucel (hydroxypropylcellulose) (HPC).
Where [11] appears, read: dose: 100.0 mg/kg/injection, schedule: Q01DX009 (ip), vehicle: Klucel (hydroxypropylcellulose) (HPC).
The mark [12] stands for this setting: dose: 6.25 mg/kg/injection, schedule: Q01DX009 (ip), vehicle: saline with Tween-80.
The mark [13] stands for this setting: dose: 25.0 mg/kg/injection, schedule: Q01DX009 (ip), vehicle: saline with Tween-80.
[14] abbreviates: dose: 50.0 mg/kg/injection, schedule: Q01DX009 (ip), vehicle: saline.
Where [15] appears, read: dose: 100.0 mg/kg/injection, schedule: Q01DX009 (ip), vehicle: saline.
Setting [16] is: dose: 200.0 mg/kg/injection, schedule: Q01DX009 (ip), vehicle: saline.
Setting [17] is: dose: 200.0 mg/kg/injection, schedule: Q01DX009 (ip), vehicle: Klucel (hydroxypropylcellulose) (HPC).
The mark [18] stands for this setting: dose: 100.0 mg/kg/injection, schedule: Q01DX001 (ip), vehicle: Klucel (hydroxypropylcellulose) (HPC).
Where [19] appears, read: dose: 400.0 mg/kg/injection, schedule: Q01DX001 (ip), vehicle: Klucel (hydroxypropylcellulose) (HPC).
[20] abbreviates: dose: 12.5 mg/kg/injection, schedule: Q01DX009 (ip), vehicle: saline.
Where [21] appears, read: dose: 50.0 mg/kg/injection, schedule: Q01DX005 (ip), vehicle: saline with Tween-80.
[22] abbreviates: dose: 100.0 mg/kg/injection, schedule: Q01DX005 (ip), vehicle: saline with Tween-80.

Take `O=C(Nc1ccccc1)c1cc2ccccc2oc1=O`: the T/C runs as follows: (dose: 30.0 mg/kg/injection, schedule: Q01DX005 (ip), vehicle: saline with Tween-80) 99 % of control; under setting [1], 95 % of control; under setting [2], 94 % of control; under setting [3], 100 % of control.
With `COc1ccc(/C=N/NC(=O)C(O)c2ccccc2)cc1` (centres undefined), the T/C reads like this: under setting [1], 99 % of control; under setting [2], 90 % of control; under setting [3], 91 % of control.
Regarding `Oc1c(Cl)cc(Cl)cc1CN1CCCCC1`, the T/C under setting [4] was 91 % of control, the T/C under setting [5] was 98 % of control and the T/C under setting [6] was 91 % of control.
With `c1ccc2c(c1)Nc1ccccc1C1CC21` (centres undefined), the T/C is 96 % of control under setting [7], 99 % of control under setting [8] and 92 % of control under setting [9].
Consider `COc1nc(N)c([N+](=O)[O-])c(C(Br)Br)n1`, for which the T/C is, setting by setting: (dose: 6.25 mg/kg/injection, schedule: Q01DX005 (ip), vehicle: Klucel (hydroxypropylcellulose) (HPC)) 104 % of control; (dose: 12.5 mg/kg/injection, schedule: Q01DX005 (ip), vehicle: Klucel (hydroxypropylcellulose) (HPC)) 100 % of control; (dose: 25.0 mg/kg/injection, schedule: Q01DX005 (ip), vehicle: Klucel (hydroxypropylcellulose) (HPC)) 91 % of control.
As to `CN(C)C(=S)SSC(=S)N(C)C`, the T/C is, setting by setting: (dose: 12.5 mg/kg/injection, schedule: Q01DX009 (ip), vehicle: Klucel (hydroxypropylcellulose) (HPC)) 119 % of control; (dose: 25.0 mg/kg/injection, schedule: Q01DX009 (ip), vehicle: Klucel (hydroxypropylcellulose) (HPC)) 115 % of control; under setting [10], 101 % of control and 117 % of control; under setting [11], 118 % of control and 90 % of control.
Turning to `Cc1cc(Cl)n[nH]1`, the T/C by setting is: under setting [12], 108 % of control; (dose: 12.0 mg/kg/injection, schedule: Q01DX009 (ip), vehicle: saline with Tween-80) 108 % of control; under setting [13], 106 % of control.
`NC1=NS(=O)(=O)Nc2nc[nH]c21`: the T/C was 101 % of control under setting [7] and 100 % of control under setting [8].
Consider `CCCCNP(=O)(N1CC1CC)N1CC1CC` (centres undefined), for which the T/C is, setting by setting: under setting [14], 122 % of control; under setting [15], 150 % of control; under setting [16], 104 % of control; (dose: 300.0 mg/kg/injection, schedule: Q04DX003 (ip), vehicle: saline) 195 % of control.
Consider `CCCCCCCC/C=C/CCCCCCCC(=O)N(C)CCOC(=O)C(C)(C)C`, for which the T/C is, setting by setting: under setting [10], 122 % of control and 95 % of control; under setting [11], 106 % of control and 120 % of control; under setting [17], 103 % of control and 114 % of control.
In the case of `OCc1c(Cl)nc2sccn12`, the T/C (dose: 25.0 mg/kg/injection, schedule: Q01DX001 (ip), vehicle: Klucel (hydroxypropylcellulose) (HPC)) was 109 % of control; the T/C (dose: 50.0 mg/kg/injection, schedule: Q01DX001 (ip), vehicle: Klucel (hydroxypropylcellulose) (HPC)) is 105 % of control; the T/C under setting [18] was 93 % of control and 97 % of control; the T/C under setting [19] was 92 % of control.
As to `CN(C)/C(N)=N\c1ncccn1`, the T/C runs as follows: under setting [20], 94 % of control; (dose: 25.0 mg/kg/injection, schedule: Q01DX009 (ip), vehicle: saline) 91 % of control; under setting [14], 91 % of control; under setting [15], 93 % of control; under setting [16], 90 % of control.
Regarding `Nc1ccccc1N=Cc1c(O)c2ccccc2oc1=O`, the T/C under setting [21] is 93 % of control and the T/C under setting [22] was 98 % of control.
As to `O=C(N1CCCCCC1)N1CC1`, the T/C reads like this: under setting [10], 93 % of control; under setting [11], 118 % of control.
As for `CCC[N+](CCC)=c1ccc2nc3c(C)cc(N(CC)CC)cc3sc-2c1`, the T/C (dose: 0.78 mg/kg/injection, schedule: Q01DX009 (ip), vehicle: saline) is 108 % of control; the T/C (dose: 1.56 mg/kg/injection, schedule: Q01DX009 (ip), vehicle: saline) is 112 % of control; the T/C (dose: 3.13 mg/kg/injection, schedule: Q01DX009 (ip), vehicle: saline) was 113 % of control and 118 % of control; the T/C (dose: 6.25 mg/kg/injection, schedule: Q01DX009 (ip), vehicle: saline) is 123 % of control; the T/C under setting [20] was 115 % of control.
In the case of `NC(=S)N/N=C/c1c(Cl)nc2sccn12`, the T/C is, setting by setting: under setting [18], 92 % of control; (dose: 200.0 mg/kg/injection, schedule: Q01DX001 (ip), vehicle: Klucel (hydroxypropylcellulose) (HPC)) 97 % of control; under setting [19], 97 % of control.
With `CC1(CSc2ccccc2)CC(=O)N1` (centres undefined), the T/C by setting is: under setting [4], 111 % of control; under setting [5], 98 % of control; under setting [6], 99 % of control.
As to `CCS(=O)(=O)C(C(O)C(O)C(O)C(C)O)S(=O)(=O)CC` (centres undefined), the T/C was 100 % of control under setting [14], 100 % of control under setting [15] and 96 % of control under setting [16].
Take `CCOC(=O)Cn1c(=S)sc2ccccc21`: the T/C was 91 % of control under setting [13], 89 % of control under setting [7], 99 % of control under setting [8] and 91 % of control under setting [9].
`CCCCOC(=O)/C=C(\I)C(=O)OCCCC`: the T/C by setting is: under setting [12], 101 % of control and 110 % of control and 92 % of control; (dose: 12.5 mg/kg/injection, schedule: Q01DX009 (ip), vehicle: saline with Tween-80) 112 % of control and 114 % of control and 96 % of control; under setting [13], 113 % of control and 120 % of control and 124 % of control; under setting [7], 110 % of control and 111 % of control and 118 % of control.
For `Nc1nc2ccccc2c2c1C(=O)NC2=O`, the T/C under setting [7] is 104 % of control, the T/C under setting [8] was 86 % of control and the T/C under setting [9] was 90 % of control.
Regarding `N#CC(Nc1ncccn1)c1ccccc1` (centres undefined), the T/C reads like this: under setting [1], 97 % of control; under setting [2], 94 % of control; under setting [3], 91 % of control.
In the case of `CC(C)NCc1ccccc1Sc1ccccc1CNC(C)C`, the T/C runs as follows: (dose: 25.0 mg/kg/injection, schedule: Q01DX001 (ip), vehicle: saline with Tween-80) 99 % of control; (dose: 25.0 mg/kg/injection, schedule: Q04DX002 (ip), vehicle: saline) 103 % of control; (dose: 50.0 mg/kg/injection, schedule: Q01DX001 (ip), vehicle: saline with Tween-80) 98 % of control; (dose: 50.0 mg/kg/injection, schedule: Q04DX002 (ip), vehicle: saline) 103 % of control; (dose: 100.0 mg/kg/injection, schedule: Q01DX001 (ip), vehicle: saline with Tween-80) 98 % of control; (dose: 100.0 mg/kg/injection, schedule: Q04DX002 (ip), vehicle: saline) 103 % of control.
Regarding `O=C(Oc1ccccc1)OC1CCCN(C(=O)Oc2ccccc2)C1` (centres undefined), the T/C by setting is: under setting [10], 93 % of control; under setting [11], 93 % of control; under setting [17], 93 % of control.
`S=c1nc[nH]c2c1ncn2C1CCCO1` (centres undefined): the T/C reads like this: (dose: 100.0 mg/kg/injection, schedule: Q04DX003 (ip), vehicle: saline with Tween-80) 100 % of control; (dose: 200.0 mg/kg/injection, schedule: Q04DX003 (ip), vehicle: saline with Tween-80) 118 % of control.
`N#CC(Cc1ccccc1)c1ccc(Cl)cc1` (centres undefined): the T/C under setting [10] was 106 % of control; the T/C under setting [11] is 110 % of control; the T/C under setting [17] is 104 % of control; the T/C (dose: 400.0 mg/kg/injection, schedule: Q01DX009 (ip), vehicle: Klucel (hydroxypropylcellulose) (HPC)) is 109 % of control.
`c1ccc(Cc2csc3nc4ccccc4n23)cc1`: the T/C under setting [1] is 100 % of control, the T/C under setting [2] is 109 % of control and the T/C under setting [3] was 99 % of control.
For the molecule `CC(=O)Nc1ccc(S(=O)(=O)CC#N)cc1`, the T/C by setting is: under setting [4], 87 % of control; under setting [5], 93 % of control.
For the molecule `O=C1CS(=O)(=O)C(c2ccccc2)N1N1C(=O)CS(=O)(=O)C1c1ccccc1` (centres undefined), the T/C under setting [21] was 104 % of control; the T/C under setting [22] is 104 % of control; the T/C (dose: 200.0 mg/kg/injection, schedule: Q01DX005 (ip), vehicle: saline with Tween-80) was 92 % of control.
For the molecule `O=C1c2ccccc2C(=O)c2c1c([N+](=O)[O-])c1c(c2[N+](=O)[O-])OCO1`, the T/C was 86 % of control under setting [1], 86 % of control under setting [2] and 96 % of control under setting [3].
